Source: patent US20130143236A1, “METHOD FOR DETERMINING SENSITIVITY OF TUMOR CELLS TO DASATINIB AND COMPUTER PROGRAM” (priority 2011, published 2013)

Tested on: tyrosine kinase in the measurement sample (cell membrane fraction of breast cancer cell lines)
Assay: Tyrosine kinase activity of cell membrane fraction in presence/absence of tyrosine kinase inhibitor (Poly-Glu4-Tyr substrate, ELISA chemiluminescence)
Format: biochemical
Conditions: 25 μM kinase inhibitor, 25 μM ATP, activity with inhibitor / without
Procedure: 500 μl of NP40(−) solubilized buffer (20 mM HEPES (pH 7.4)), 10 (w/v) % glycerol, 0.2% protease inhibitor cocktail (#P8340: Sigma-Aldrich (product composition: 104 mM AEBSF, 80 μM aprotinin, 4 mM bestatin, 1.4 mM E-64, 2 mM leupeptin, 1.5 mM Pepstatin A), 50 mM NaF and 200 μM Na3VO4) was added to the cell pellet, followed by stirring for 2 seconds three times using a vortex mixer. After being allowed to stand for 10 minutes, the soluble fraction was removed by centrifugal operation (at 20000×g, for 30 minutes, at 4° C.). The obtained pellet was resuspended in 500 μl of NP40(−) solubilized buffer, the soluble fraction was again removed by centrifugal operation (at 20000×g, for 20 minutes, at 4° C.), and the pellet was washed. The pellet was resuspended by adding 500 μl of NP40(+) solubilized buffer (a buffer prepared by adding NP-40 to the NP40(−) solubilized buffer at a final concentration of 1% to the pellet, pipetting 50 times, and vortexing for 2 seconds three times. After being allowed to stand for 10 minutes, a cell membrane fraction containing a membrane protein was obtained by centrifugal operation (at 20000×g, for 40 minutes, at 4° C.). The protein concentration of the obtained cell membrane fraction was measured by DC protein assay (#500-0116 JA: Bio-Rad). Then, the cell membrane fraction was used as a measurement sample for the following experiments. The measurement sample was frozen with liquid nitrogen and stored at −80° C. before use for the following kinase activity measurement.
NeutrAvidin Coated Plates (HBC) (96-well white plate; #15509: Pierce) were washed three times with 300 μl of TBS-T (20 mM Tris-HCl (pH 7.4)), 150 mM NaCl, 0.1% tween). Then, 100 μl of Poly-Glu4-Tyr biotin conjugate (#12440: Upstate) which had been diluted to 1 μg/ml with TBS (20 mM Tris-HCl (pH 7.4), 150 mM NaCl) was added to the wells. After shaking at 37° C. and 400 rpm for 90 minutes, the wells were washed with 300 μl of TBS-T three times and a measuring plate was obtained.
The measurement sample was diluted with a kinase buffer (20 mM HEPES (pH 7.4), 25 mM MgCl2, 1.25 mM MnCl2, 250 μM Na3VO4, 12.5 (w/v) % glycerol) so as to adjust the protein concentration to 6.25 μg/ml. The diluted measurement sample was transferred to wells of a 96 well V bottom plate. As the tyrosine kinase inhibitors, Src kinase inhibitor I known as an inhibitor of Src (CAS No. 179248-59-0: Calbiochem), PP1 (CAS No. 172889-26-8: Biomol), and Src kinase inhibitor II (Calbiochem) represented by Structural formula (I) below were used. A DMSO solution (inhibitor concentration: 5 mM) containing these inhibitors (Inhibitors 1 to 10 shown in Table 6) was added to the wells at a ratio of 1:160 based on the diluted measurement sample, followed by mixing thereof. As the control, DMSO was added to the diluted measurement sample at the same ratio as the solution of the inhibitor.
After addition of each of the tyrosine kinase inhibitors, a mixed solution of the measurement sample and the inhibitor was allowed to stand at room temperature for 10 minutes. 40 μl of the mixed solution was transferred to wells of the measuring plate and 10 μl of an ATP solution (20 mM HEPES (pH 7.4), […]) as the phosphate group donor was added to the wells. The composition of the solution in the wells is as follows: protein concentration: 5 μg/ml, 20 mM HEPES (pH 7.4), 20 mM MgCl2, 1 mM MnCl2, 200 μM Na3VO4, 10 (w/v) % glycerol, and 25 μM ATP, 25 μM kinase inhibitor.
After shaking the measuring plate at 37° C. and 400 rpm for 60 minutes, the solution was removed from the measuring plate, and the wells were washed with 300 μl of TBS-T three times. 100 μl of Starting Block T20 (TBS) (#37543: Pierce) as a blocking solution was added to the wells, followed by blocking at 37° C. and 400 rpm for 10 minutes. The blocking solution was removed from the measuring plate. […]

[1] = AU565 membrane fraction (dasatinib-insensitive cell line)
[2] = BT-20 membrane fraction (dasatinib-sensitive cell line)
[3] = BT-474 membrane fraction (dasatinib-insensitive cell line)
[4] = BT-549 membrane fraction (dasatinib-insensitive cell line)
[5] = HCC1419 membrane fraction (dasatinib-insensitive cell line)
[6] = HCC1428 membrane fraction (dasatinib-insensitive cell line)
[7] = HCC1806 membrane fraction (dasatinib-sensitive cell line)
[8] = HCC1954 membrane fraction (dasatinib-sensitive cell line)
[9] = HS578T membrane fraction (dasatinib-sensitive cell line)
[10] = MCF7 membrane fraction (dasatinib-insensitive cell line)
[11] = MDA-MB-157 membrane fraction (dasatinib-sensitive cell line)
[12] = MDA-MB-231 membrane fraction (dasatinib-sensitive cell line)
[13] = MDA-MB-435S membrane fraction (dasatinib-insensitive cell line)
[14] = MDA-MB-436 membrane fraction (dasatinib-insensitive cell line)
[15] = MDA-MB-453 membrane fraction (dasatinib-insensitive cell line)
[16] = MDA-MB-468 membrane fraction (dasatinib-insensitive cell line)
[17] = SK-BR-3 membrane fraction (dasatinib-insensitive cell line)
[18] = ZR-75-1 membrane fraction (dasatinib-insensitive cell line)
[19] = ZR-75-30 membrane fraction (dasatinib-insensitive cell line)

SMILES | RA (relative activity value) [1] | RA (relative activity value) [2] | RA (relative activity value) [3] | RA (relative activity value) [4] | RA (relative activity value) [5] | RA (relative activity value) [6] | RA (relative activity value) [7] | RA (relative activity value) [8] | RA (relative activity value) [9] | RA (relative activity value) [10] | RA (relative activity value) [11] | RA (relative activity value) [12] | RA (relative activity value) [13] | RA (relative activity value) [14] | RA (relative activity value) [15] | RA (relative activity value) [16] | RA (relative activity value) [17] | RA (relative activity value) [18] | RA (relative activity value) [19]
Cc1ccc(-c2nn(C(C)(C)C)c3ncnc(N)c23)cc1 [PP1, 1-(1,1-dimethylethyl)-1-(4-methylphenyl)-1H-pyrazolo-[3,4-d]-pyrimidine-4-amine] | 0.302 | 0.309 | 0.496 | 0.193 | 0.446 | 0.451 | 0.160 | 0.292 | 0.194 | 0.295 | 0.173 | 0.134 | 0.313 | 0.403 | 0.448 | 0.322 | 0.260 | 0.314 | 0.507
COc1cc2ncnc(Nc3ccc(Oc4ccccc4)cc3)c2cc1OC [Src kinase inhibitor I, 4-(4′-phenoxylanilino)-6,7-dimethoxyquinazoline] | 0.632 | 0.434 | 0.624 | 0.394 | 0.637 | 0.563 | 0.329 | 0.535 | 0.418 | 0.508 | 0.397 | 0.364 | 0.551 | 0.551 | 0.837 | 0.190 | 0.567 | 0.442 | 0.627
COc1ccc2c(c1)cc(C)c1nnc(SCC(=O)Nc3cccc(C(C)=O)c3)n12 [Src kinase inhibitor II] | 0.731 | 0.668 | 0.620 | 0.528 | 0.615 | 0.720 | 0.476 | 0.644 | 0.709 | 0.307 | 0.715 | 0.426 | 0.500 | 0.514 | 0.549 | 0.523 | 0.414 | 0.697 | 0.596
